Assay results taken from US8563542B2 (Cyclacel Limited, priority 2007, dated 2013).
Where two headings read alike, the source gives them in different places.

Target: PLK1 (Homo sapiens, UniProt P53350)
Experiment: PLK1 protein kinase assay (CDC25C phosphorylation, [γ-32P]-ATP)
Type: biochemical
Conditions: read-out: PLK1 IC50
[1] = Table 2, PLK1 IC50, class symbols

PLK1, sequence (P53350 whole entry): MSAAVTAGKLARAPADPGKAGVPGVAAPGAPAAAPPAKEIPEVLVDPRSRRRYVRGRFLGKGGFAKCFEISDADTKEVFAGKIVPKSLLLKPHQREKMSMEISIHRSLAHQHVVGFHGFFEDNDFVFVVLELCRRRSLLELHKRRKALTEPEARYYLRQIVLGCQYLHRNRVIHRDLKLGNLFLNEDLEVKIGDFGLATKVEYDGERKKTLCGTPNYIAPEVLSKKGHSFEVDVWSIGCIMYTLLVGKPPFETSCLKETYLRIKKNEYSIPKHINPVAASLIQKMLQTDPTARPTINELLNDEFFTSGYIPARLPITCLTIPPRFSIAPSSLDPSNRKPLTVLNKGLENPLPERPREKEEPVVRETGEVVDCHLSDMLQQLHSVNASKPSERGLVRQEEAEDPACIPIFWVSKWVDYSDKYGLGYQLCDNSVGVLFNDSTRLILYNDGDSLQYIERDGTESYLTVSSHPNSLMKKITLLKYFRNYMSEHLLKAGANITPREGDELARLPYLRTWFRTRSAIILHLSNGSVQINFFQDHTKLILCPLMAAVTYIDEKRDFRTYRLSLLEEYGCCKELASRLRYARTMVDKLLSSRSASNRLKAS

| Compound | IC50 (Table 1) [nM] | IC50 [1] [nM] |
| --- | --- | --- |
| COc1cc(C(=O)NC2CCN(C)CC2)ccc1Nc1ncc2c(n1)N(C1CCCCC1)CCC(=O)N2 [compound 39, 4-(9-Cyclohexyl-6-oxo-6,7,8,9-tetrahydro-5H-pyrimido[4,5-b][1,4]diazepin-2-ylamino)-3-methoxy-N-(1-methyl-piperidin-4-yl)-benzamide] | < 10000 |  |
| CCC1CN(C2CCCC2)c2nc(Nc3ccc(C(=O)NC4CCN(C)CC4)cc3OC)ncc2N(C)C1=O (stereo not shown) [compound 40, 4-(9-Cyclopentyl-7-ethyl-5-methyl-6-oxo-6,7,8,9-tetrahydro-5H-pyrimido[4,5-b][1,4]diazepin-2-ylamino)-3-methoxy-N-(1-methyl-piperidin-4-yl)-benzamide] |  | < 100 |
| COc1cccc(N2CCC(=O)N(C)c3cnc(Nc4ccc(C(=O)NC5CCN(C)CC5)cc4OC)nc32)c1 [compound 48, 3-Methoxy-4-[9-(3-methoxy-phenyl)-5-methyl-6-oxo-6,7,8,9-tetrahydro-5H-pyrimido[4,5-b][1,4]diazepin-2-ylamino]-N-(1-methyl-piperidin-4-yl)-benzamide] |  | < 10000 |
| COc1cc(C(=O)NC2CCN(C)CC2)ccc1Nc1ncc2c(n1)N(c1ccccc1F)CCC(=O)N2C [compound 52, 4-[9-(2-Fluoro-phenyl)-5-methyl-6-oxo-6,7,8,9-tetrahydro-5H-pyrimido[4,5-b][1,4]diazepin-2-ylamino]-3-methoxy-N-(1-methyl-piperidin-4-yl)-benzamide] |  | < 1000 |
| CCOc1cc(C(=O)NC2CCN(C)CC2)ccc1Nc1ncc2c(n1)N(C1CCCC1)CCC(=O)N2C [compound 59, 4-(9-Cyclopentyl-5-methyl-6-oxo-6,7,8,9-tetrahydro-5H-pyrimido[4,5-b][1,4]diazepin-2-ylamino)-3-ethoxy-N-(1-methyl-piperidin-4-yl)-benzamide] |  | < 1000 |
| COc1ccccc1Nc1ncc2c(n1)N(C1CCCC1)CCC(=O)N2C [compound 60, 9-Cyclopentyl-2-(2-methoxy-phenylamine)-5-methyl-5,7,8,9-tetrahydro-pyrimido[4,5-b][1,4]diazepin-6-one] |  | < 1000 |
| CN1C(=O)CCN(C2CCCC2)c2nc(NCc3ccccc3)ncc21 [compound 62, 2-Benzylamino-9-cyclopentyl-5-methyl-5,7,8,9-tetrahydro-pyrimido[4,5-b][1,4]diazepin-6-one] |  | < 1000 |
| COc1cc(C(=O)NC2CCN(C)CC2)ccc1Nc1ncc2c(n1)N(CC1CC1)CCC(=O)N2C [compound 65, 4-(9-Cyclopropylmethyl-5-methyl-6-oxo-6,7,8,9-tetrahydro-5H-pyrimido[4,5-b][1,4]diazepin-2-ylamino)-3-methoxy-N-(1-methyl-piperidin-4-yl)-benzamide] |  | < 100 |
| CCCCN1CCC(=O)N(C)c2cnc(Nc3ccc(C(=O)NC4CCN(C)CC4)cc3OC)nc21 [compound 66, 4-(9-Butyl-5-methyl-6-oxo-6,7,8,9-tetrahydro-5H-pyrimido[4,5-b][1,4]diazepin-2-ylamino)-3-methoxy-N-(1-methyl-piperidin-4-yl)-benzamide] |  | < 1000 |
| COc1cc(C(=O)NC2CCN(C)CC2)ccc1Nc1ncc2c(n1)N(C(C)C)CCC(=O)N2C [compound 67, 4-(9-Isopropyl-5-methyl-6-oxo-6,7,8,9 tetrahydro-5H-pyrimido[4,5-b][1,4]diazepin-2-ylamino)-3-methoxy-N-(1-methyl-piperidin-4-yl)-benzamide] |  | < 100 |
| COc1cc(C(=O)NC2CCN(C)CC2)ccc1Nc1ncc2c(n1)N(CCC(C)C)CCC(=O)N2C [compound 68, 3-Methoxy-4-[5-methyl-9-(3-methyl-butyl)-6-oxo-6,7,8,9-tetrahydro-5H-pyrimido[4,5-b][1,4]diazepin-2-ylamino]-N-(1-methyl-piperidin-4-yl)-benzamide] |  | < 1000 |
| COc1cc(C(=O)NC2CCN(C)CC2)ccc1Nc1ncc2c(n1)N(CC1CCCC1)CCC(=O)N2C [compound 69, 4-(9-Cyclopentylmethyl-5-methyl-6-oxo-6,7,8,9-tetrahydro-5H-pyrimido[4,5-b][1,4]diazepin-2-ylamino)-3-methoxy-N-(1-methyl-piperidin-4-yl)-benzamide] |  | < 1000 |
| COc1ccc(Nc2ncc3c(n2)N(C2CCCC2)CCC(=O)N3C)c(OC)c1 [compound 71, 9-Cyclopentyl-2-(2,4-dimethoxy-phenylamino)-5-methyl-5,7,8,9-tetrahydro-pyrimido[4,5-b][1,4]diazepin-6-one] |  | < 100 |
| COc1ccc(CNc2ncc3c(n2)N(C2CCCC2)CCC(=O)N3C)cc1 [compound 92, 9-Cyclopentyl-2-(4-methoxy-benzylamino)-5-methyl-5,7,8,9-tetrahydro-pyrimido[4,5-b][1,4]diazepin-6-one] |  | < 10000 |
| CN1C(=O)CCN(C2CCCC2)c2nc(NCc3cccs3)ncc21 [compound 94, 9-Cyclopentyl-5-methyl-2-[(thiophen-2-ylmethyl)-amino]-5,7,8,9-tetrahydro-pyrimido[4,5-b][1,4]diazepin-6-one] |  | < 10000 |
| COc1cc(C(=O)Nc2ccccc2)ccc1Nc1ncc2c(n1)N(C1CCCC1)CCC(=O)N2C [compound 95, 4-(9-Cyclopentyl-5-methyl-6-oxo-6,7,8,9-tetrahydro-5H-pyrimido[4,5-b][1,4]diazepin-2-ylamino)-3-methoxy-N-phenyl-benzamide] |  | < 10000 |

| Compound | IC50 (Table 1) [nM] | IC50 [1] [nM] |
| --- | --- | --- |
| CN1C(=O)CCN(C2CCCC2)c2nc(Nc3cccc4cc[nH]c34)ncc21 [compound 98, 9-Cyclopentyl-2-(1H-indol-7-ylamino)-5-methyl-5,7,8,9-tetrahydro-pyrimido[4,5-b][1,4]diazepin-6-one] |  | < 1000 |
| COc1cc(C(=O)NC2CCN(C)CC2)ccc1Nc1ncc2c(n1)N(C(C)C)CC1(CC1)C(=O)N2C [compound 99, 4-(9-Isopropyl-5-methyl-6-oxo-6,7,8,9-tetrahydro-5H-spiro[pyrimido[4,5-b][1,4]diazepin-3,1′-cyclopropane]-2-ylamino)-3-methoxy-N-(1-methyl-piperidin-4-yl)-benzamide] |  | < 100 |
| COc1cc(C(=O)NC2CCN(C)CC2)ccc1Nc1ncc2c(n1)N(C1CCCC1)CC1(CCC1)C(=O)N2C [compound 100, 4-(9-Cyclopentyl-5-methyl-6-oxo-6,7,8,9-tetrahydro-5H-spiro[pyrimido[4,5-b][1,4]diazepin-3,1′-cyclobutane]-2-ylamino)-3-methoxy-N-(1-methyl-piperidin-4-yl)-benzamide] |  | < 100 |
| COc1cc(C(=O)NC2CCN(C)CC2)ccc1Nc1ncc2c(n1)N(C1CCCC1)CC1(CCCC1)C(=O)N2C [compound 101, 4-(9-Cyclopentyl-5-methyl-6-oxo-6,7.8,9-tetrahydro-5H-spiro[pyrimido[4,5-b][1,4]diazepin-3,1′-cyclopentane]-2-ylamino)-3-methoxy-N-(1-methyl-piperidin-4-yl)-benzamide] |  | < 1000 |
| C=CCN1CCC(=O)N(C)c2cnc(Nc3ccc(C(=O)NC4CCN(C)CC4)cc3OC)nc21 [compound 102, 4-(9-Allyl-5-methyl-6-oxo-6,7,8,9-tetrahydro-5H-pyrimido[4,5-b][1,4]diazepin-2-ylamino)-3-methoxy-N-(1-methyl-piperidin-4-yl)-benzamide] |  | < 1000 |
| CN1C(=O)CCN(C2CCCC2)c2nc(NCc3ccsc3)ncc21 [compound 106, 9-Cyclopentyl-5-methyl-2-[(thiophen-3-ylmethyl)-amino]-5,7,8,9-tetrahydro-pyrimido[4,5-b][1,4]diazepin-6-one] |  | < 10000 |
| CN1C(=O)CCN(C2CCCC2)c2nc(NCc3ccoc3)ncc21 [compound 107, 9-Cyclopentyl-2-[(furan-3-ylmethyl)-amino]-5-methyl-5,7,8,9-tetrahydro-pyrimido[4,5-b][1,4]diazepin-6-one] |  | < 10000 |
| COc1cc(C(=O)NC2CCN(C)CC2)ccc1Nc1ncc2c(n1)N(C)CCC(=O)N2C [compound 111, 4-(5,9-Dimethyl-6-oxo-6,7,8,9-tetrahydro-5H-pyrimido[4,5-b][1,4]diazepin-2-ylamino)-3-methoxy-N-(1-methyl-piperidin-4-yl)-benzamide] |  | < 1000 |
| CNC(=O)c1ccc(Nc2ncc3c(n2)N(C)CCC(=O)N3C)c(OC)c1 [compound 112, 4-(5,9-Dimethyl-6-oxo-6,7,8,9-tetrahydro-5H-pyrimido[4,5-b][1,4]diazepin-2-ylamino)-3-methoxy-N-methyl-benzamide] |  | < 10000 |
| CNC(=O)c1ccc(Nc2ncc3c(n2)N(C(C)C)CC2(CC2)C(=O)N3C)c(OC)c1 [compound 113, 4-(9-Isopropyl-5-methyl-6-oxo-6,7,8,9-tetrahydro-5H-spiro[pyrimido[4,5-b][1,4]diazepin-3,1′-cyclopropane]-2-ylamino)-3-methoxy-N-methyl-benzamide] |  | < 1000 |
| CN1C(=O)CCN(C2CCCC2)c2nc(NCc3ccc4c(c3)OCCO4)ncc21 [compound 127, 9-Cyclopentyl-2-[(2,3-dihydro-benzo[1,4]dioxin-6-ylmethyl)-amino]-5-methyl-5,7,8,9-tetrahydro-pyrimido[4,5-b][1,4]diazepin-6-one] |  | < 10000 |
| CN1C(=O)CCN(C2CCCC2)c2nc(NCc3cc4ccccc4s3)ncc21 [compound 129, 2-[(Benzo[b]thiophen-2-ylmethyl)-amino]-9-cyclopentyl-5-methyl-5,7,8,9-tetrahydro-pyrimido[4,5-b][1,4]diazepin-6-one] |  | < 10000 |
| Cc1cccc(CNc2ncc3c(n2)N(C2CCCC2)CCC(=O)N3C)c1 [compound 131, 9-Cyclopentyl-5-methyl-2-(3-methyl-benzylamino)-5,7,8,9-tetrahydro-pyrimido[4,5-b][1,4]diazepin-6-one] |  | < 10000 |
| CNC(=O)c1cccc(Nc2ncc3c(n2)N(C2CCCC2)CCC(=O)N3C)c1C [compound 141, 3-(9-Cyctopentyl-5-methyl-6-oxo-6,7,8,9-tetrahydro-5H-pyrimido[4,5-b][1,4]diazepin-2-ylamino)-2,N-dimethyl-benzamide] |  | < 10000 |
| Cc1c(Nc2ncc3c(n2)N(C2CCCC2)CCC(=O)N3C)cccc1C(=O)NCCO [compound 142, 3-(9-Cyclopentyl-5-methyl-6-oxo-6,7,8,9-tetrahydro-5H-pyrimido[4,5-b][1,4]diazepin-2-ylamino)-N-(2-hydroxy-ethyl)-2-methyl-benzamide] |  | < 10000 |
